Each structure is given as a SMILES string. In brackets after ≈: the same amount, converted by molar mass. Several values for one entry are separate records, joined by “and”; a condition that tells them apart may be missing. Identical values can stand only once. Like-named read-outs stand apart in the source and are kept apart here.

The test system of series [1] is HBV HBsAg. The series can be described thus: HBsAg reduction in HBV infected primary human hepatocytes (ELISA). Type of series: cell-based. The following applies: Hepatitis B virus, Hepatocyte. The protocol: The potency (pIC50) of Compound A for reduction of HBV HBsAg was investigated in primary human hepatocytes (PHH) from three donors. HBV infected PHH samples were treated with Compound A for 21 days and secreted HBsAg was measured using an ELISA assay to determine the % inhibition and average potency of the replicates (two per PHH donor).
(§1) The antiviral activity of Compound A was evaluated in in vitro HBV systems: (1) HepAD38, a hepatoma cell line with inducible expression of HBV, (2) primary human hepatocytes (PHHs) infected with HBV, and in vivo in infected male C57BL/6 mice with AAV-HBV. Overall there is a correlation between in vitro potency (HepAD38 & PHHs) and AAV-HBV in vivo model HBsAg inhibition.

For series [2], the system named is primary human hepatocytes (PHH). In words: Visual examination for cell toxicity in PHH. In kind it is cell-based. The following applies: HBV infected PHH, 21 days treatment.
Series [3] in a line: Toxicity evaluation incl. nerve toxicity, 28 days of dosing, rats. The conditions noted are these: 28 days of dosing followed by 6 week off dose period. Type of series: in vivo. How it is done: (§2) Studies were conducted to evaluate toxicity, including additional endpoints investigating nerve toxicity of Compound A after 28 days of dosing followed by a 6 week off dose period in rats and monkeys.

The nature of series [4]: Toxicity evaluation incl. nerve toxicity, 28 days of dosing, monkeys. In kind it is in vivo. The following applies: 28 days of dosing followed by 6 week off dose period. How it is done: as §2
The test system of series [5] is HBV HBsAg. In words: HBsAg reduction in HepAD38 cell line (HBsAg ELISA). The conditions noted are these: Hepatitis B virus; for EC50: HePAD38, 168 h, read-out: HBsAg (EC50). Type of series: cell-based, hepatitis B virus (HBV). How it is done: HepAD38 cells were maintained in collagen-coated flasks in cell culture medium (DMEM/F12 containing 10% fetal bovine serum (FBS), GlutaMax-1, penicillin/streptomycin, non-essential amino acids, Na pyruvate, 250 μg/mL geneticin, and 1 μg/mL doxycycline). Compound solutions were prepared in DMSO and compounds were serially diluted for final concentrations of 4000, 1000, 250, 62.5, 15.6, 3.91, 0.977, 0.244, 0.061, and 0.015 nM. The cells were then trypsinized and the cells were plated at 10,000 cells per well. Plates were incubated at 37° C., 5% CO2 for 4 days. Media was replaced with new media with compound treatment. The plates were then incubated at 37° C., 5% CO2 for an additional 3 days for a total treatment time of 7 days. For antiviral response, HBsAg was measured using the HBsAg ELISA kit (International Immuno-diagnostics) with instructions provided. 100 μL of cell media samples was used for ELISA. The absorbance was read on the SPECTRAMAX 384 plate reader (Molecular Devices) at 450 nm. For cell toxicity, the cells were used for CELLTITER-GLO Luminescent Cell Viability Assay reagent (Promega). The luminescence was read on Envision Multilabel Reader (Perkin Elmer). The data was analyzed compared to the DMSO control.
% inhibition=(1−(unknown/high control))*100
The average % inhibition values from duplicate assay plates were then plotted in GraphPad Prism to determine one EC value: Four-parameter logistic curve with equation Y=Bottom+(Top-Bottom)/(1+10^((Log EC50−X)*Hillslope))
as §1

A further series has as its target PAPD5 (Homo sapiens, UniProt Q8NDF8). The series can be described thus: PAPD5 A15 RNA SPA biochemical assay. The protocol: (§3) Dose-response studies were conducted for Compound A and RG7834 in the PAPD5 and PAPD7 A15 RNA SPA formats. Four different batches of Compound A and two different batches of RG7834 were used in both assays. Reactions contained 5 uM ATP, 0.0025 uCi/uL 3H-ATP, 50 nM A15 RNA, 10 nM enzyme in assay buffer (20 mM Tris 7.5, 3 mM CHAPS, 0.05% dBSA, 10 mM MgCl2, 1 mM DTT, 25 mM KCl). Reaction product was detected using SPA bead mix, final concentrations were 1 mg/mL PEI-PS, 1.25 mM ATP, 11.25 mM EDTA. End point signal detection correlated with slopes of reaction time courses. Curve fitting was performed using 4-parameter fitting in ActivityBase software.

For another series, the target named is PAPD7 (Homo sapiens, UniProt Q5XG87). In words: PAPD7 A15 RNA SPA biochemical assay. The following applies: 10 nM enzyme, 5 uM ATP, 50 nM A15 RNA; read-out: average pIC50 PAPD7 (converted). How it is done: as §3
PAPD7, sequence (Q5XG87 whole entry): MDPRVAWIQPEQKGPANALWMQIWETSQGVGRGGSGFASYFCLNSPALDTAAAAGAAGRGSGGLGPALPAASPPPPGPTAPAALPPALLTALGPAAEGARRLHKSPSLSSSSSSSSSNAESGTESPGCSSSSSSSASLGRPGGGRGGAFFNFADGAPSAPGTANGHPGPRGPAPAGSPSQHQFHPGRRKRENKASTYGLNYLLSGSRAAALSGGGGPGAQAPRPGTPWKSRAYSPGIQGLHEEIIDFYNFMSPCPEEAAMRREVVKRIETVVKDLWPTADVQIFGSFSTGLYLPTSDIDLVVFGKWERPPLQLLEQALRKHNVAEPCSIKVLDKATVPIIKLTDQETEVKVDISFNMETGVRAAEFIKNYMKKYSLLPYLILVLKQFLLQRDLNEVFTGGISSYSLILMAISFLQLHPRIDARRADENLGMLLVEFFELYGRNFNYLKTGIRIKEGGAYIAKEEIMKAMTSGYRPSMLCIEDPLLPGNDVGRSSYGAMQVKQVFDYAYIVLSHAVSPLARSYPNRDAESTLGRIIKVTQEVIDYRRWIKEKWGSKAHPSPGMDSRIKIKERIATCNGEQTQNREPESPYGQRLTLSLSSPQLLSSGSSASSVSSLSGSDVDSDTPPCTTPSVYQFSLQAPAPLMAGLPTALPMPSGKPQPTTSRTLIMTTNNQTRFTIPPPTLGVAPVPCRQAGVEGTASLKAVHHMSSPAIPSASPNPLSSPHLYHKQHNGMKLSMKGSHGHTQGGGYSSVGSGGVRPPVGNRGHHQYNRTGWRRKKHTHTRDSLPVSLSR
The test system of series [6] is AAV-HBV. In words: AAV-HBV mouse model, mono-treatment. In kind it is in vivo, male C57BL/6 mice. The conditions noted are these: for HBsAg reduction: within one week of treatment, sustained. How it is done:
After 28 days of infection with AAV-HBV, mono-treatment of the infected male C57BL/6 mice with either Compound A or bepirovirsen was initiated. […] HBsAg reduction for the 3 and 30 mg/kg Compound A dose groups was close to 1 log and 1 log, respectively, within one week of treatment and reduction levels were sustained throughout the duration of the treatment period. […] The maximum observed reduction in HBeAg was 0.5 log at 30 mg/kg Compound A. There was a small reduction (0.26 to 0.40 log) in HBV DNA at the 3 and 30 mg/kg Compound A dose levels when compared to the combined vehicle group. […]

The test system of series [7] is AAV-HBV. The series can be described thus: AAV-HBV mouse model, sequential treatment. Type of series: in vivo, male C57BL/6 mice. The following applies: 30 mg/kg Compound A alone. From the text: After 35 days of infection with AAV-HBV, sequential treatment of the infected male C57BL/6 mice began first with Compound A followed by bepirovirsen.
[…], reductions in HBsAg was observed, reaching a maximum reduction of over 1 log and nearly 2 logs, respectively, by the second week. This reduction was statistically significant when compared to the combined vehicle group.

For series [8] the following is noted: preclinical; terminated in Phase 1 clinical trials due to toxicity; cited from earlier work.

PAPD5, sequence (Q8NDF8 whole entry): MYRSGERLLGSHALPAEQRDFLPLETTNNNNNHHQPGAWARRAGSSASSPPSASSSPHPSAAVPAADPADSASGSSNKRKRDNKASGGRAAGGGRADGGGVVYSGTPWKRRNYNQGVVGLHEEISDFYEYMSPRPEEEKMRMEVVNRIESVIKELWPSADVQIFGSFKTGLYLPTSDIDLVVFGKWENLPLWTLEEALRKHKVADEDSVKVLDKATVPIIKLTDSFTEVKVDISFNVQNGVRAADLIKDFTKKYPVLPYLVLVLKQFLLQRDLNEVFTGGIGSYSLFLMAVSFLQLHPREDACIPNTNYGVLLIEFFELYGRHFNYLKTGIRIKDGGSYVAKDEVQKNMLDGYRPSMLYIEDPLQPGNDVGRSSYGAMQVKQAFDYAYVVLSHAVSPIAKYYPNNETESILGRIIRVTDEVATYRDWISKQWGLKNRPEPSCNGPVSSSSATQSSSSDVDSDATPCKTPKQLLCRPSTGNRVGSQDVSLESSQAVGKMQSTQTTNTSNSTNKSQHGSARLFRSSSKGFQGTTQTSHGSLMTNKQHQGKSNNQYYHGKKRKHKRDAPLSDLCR

Turning to `COCCCOc1cc2c(nc1Cl)-c1cc(=O)c(C(=O)O)cn1[C@H]1[C@@H]2CCC1(C)C` [Compound A], the IC50 in the series on HBV HBsAg [1] was 0.00095 µg/mL and 2.19 nM; in the series with HBV HBsAg [1] (504 h, read-out: average pIC50 for reduction of HBV HBsAg (converted)), 0.832 nM; with HBV HBsAg [5] (HePAD38) it was 0.00056 µg/mL and 1.3 nM; at PAPD5 (10 nM enzyme, 5 uM ATP, 50 nM A15 RNA, read-out: average pIC50 PAPD5 (converted)) it was 12.6 nM; on PAPD7 it was 20 nM; in the series with AAV-HBV [6] (Mus musculus) it was 5.8e-05 µg/mL and 0.13 nM. Also, the concentration for an effect of 90% (IC90) in the series on HBV HBsAg [1] (read-out: Calculated IC90) is 8.55 ng/mL (≈ 0.0198 µM); in the series on HBV HBsAg [5] (HePAD38, read-out: Calculated IC90) it was 5.04 ng/mL (≈ 0.0116 µM); with AAV-HBV [6] (Mus musculus, read-out: Calculated IC90), 0.522 ng/mL (≈ 0.00121 µM). Moreover, the “cell toxicity (visual examination)” value in series [2] is recorded as “no detected sign of cell toxicity”. Besides, the “no adverse effect dose” value in series [3] and in series [4] was “No adverse effect doses were established” each time. The half-maximal effective concentration (EC50) in the series on HBV HBsAg [5] turned out to be 0.3 nM. Further, on PAPD5 (PAPD5 and PAPD7 assays (FIG. 2)), the “more potent than RG7834 by” value is above 0.5 log. The “reduction in HBsAg” value with AAV-HBV [6] (Compound A 0.3 mg/kg, over the course of treatment) is “minimal reduction in HBsAg”; in the series with AAV-HBV [7] (within one week, stable up to 28 days, statistically significant) it was around 1 log. The “HBsAg reduction compared to the combined vehicle group” value in the series with AAV-HBV [6] (Compound A 3 mg/kg or 30 mg/kg) is given as “statistically significant HBsAg reduction”. Further, the figures for the HBsAg reduction in the series with AAV-HBV [6] (Compound A 3 mg/kg) and with AAV-HBV [6] (Compound A 30 mg/kg) were around 1 log and 1 log, respectively. The “maximum observed reduction in HBeAg” value in the series on AAV-HBV [6] (Compound A 30 mg/kg) is recorded as 0.5 log. Further, in the series on AAV-HBV [6] (Compound A, following one week off-treatment), the HBsAg levels off-treatment result is given as “rebounded to baseline”. The “effect on levels of HBeAg” value in the series with AAV-HBV [6] (during treatment with Compound A, stabilized after day 7, rebounded within one week after end) is “dose dependent reduction”. For the same compound, the HBsAg off-treatment result with AAV-HBV [7] (within one week off-treatment) is “rebounded to baseline”.

Consider `Cc1cc2c(cc1OCC1COC1)CC1(CCC1)n1cc(C(=O)O)c(=O)cc1-2` [Compound B, reference compound], for which the EC50 with HBV HBsAg [5] was 3 nM.

Take `COCCCOc1cc2c(cc1OC)-c1cc(=O)c(C(=O)O)cn1[C@H](C(C)C)C2` [RG7834, reference compound]: the EC50 in the series with HBV HBsAg [5] came out at 2 nM. For the same compound, the “no adverse effect dose” value in series [8] was “no adverse effect dose could not be established”.
